Data: US20250092033A1, “HETEROAROMATIC NITROGEN-OXIDE COMPOUND, PREPARATION METHOD THEREFOR, AND USE THEREOF” (BEIJING AVISTONE BIOTECHNOLOGY CO., LTD., priority 2021, published 2025)

Legend:
[1] = target: T1, wild type (WT) MET kinase (Homo sapiens, UniProt P08581); assay: Kinase inhibition experiment (HTRF KinEASE-TK kit), wild-type MET; type: biochemical; conditions: 10 concentrations, 3-fold dilution
T1 construct: purchased Carna 08-151
Procedure: (§1) The activity of the compounds was determined by detecting the residual amount of ATP after reacting with wild-type or mutant MET protein kinase by using an HTRF KinEASE-TK kit. […]
(§2) The compounds were determined on the selected kinase, the solvent control was set and a total of 10 concentrations were detected, diluted 3-fold, 2 replicates per concentration.
(§3) 1 volume of 5× kinase reaction buffer and 4 volumes of water; 5 mM MgCl2; 1 mM DTT; 1 mM MnCl2; or 2500 nm SEB.
(§4) 1) 10 nl or 4 μlof the diluted compound was transferred to each well of the reaction plate (784075 or 264706, Greiner or Thermo) with a pipette, the reaction plate was sealed with a sealing plate, and centrifuged at 1000 for 1 minute.
(§5) 2) 2× MET was prepared from 1× enzyme reaction buffer, 5 μl or 2 μl kinase was added to each well of the reaction plate, the reaction plate was sealed with a sealing plate, centrifuged at 1000 g for 30 seconds and incubated at room temperature for 10 min.
(§6) 3) a mixed solution of 2× TK-substrate-biotin and ATP were prepared from 1× enzyme reaction buffer solution, 5 μl or 2 μl TK-substrate-biotin/ATP of the mixed solution was added into a reaction plate, the reaction plate was sealed with a sealing plate, centrifuged at 1000 g for 30 seconds and reacted for 50 minutes or 10 minutes at room temperature.
(§7) 4) a mixed solution of 4× or 2× Sa-XL 665 and TK-antibody-Cryptate were prepared from HTRF detection buffer, 5 or 10 μl of the mixed solution of Sa-XL 665 and TK-antibody-Cryptate was added into each well, centrifuged at 1000 g for 30 seconds, and reacted at room temperature for 1 h.
(§8) 5) the fluorescence signals at 615 nm (cryptate) and 665 nm (XL665) were read with Envision 2104 or TECAN.
(§9) The data was analyzed using GraphPad Prism 6.0 or 7 software, and the dose-response curve was fitted with nonlinear S-curve regression, and the IC50 value was calculated therefrom.
(§10) Enzyme Inhibition Percent (%)=100-(Signalmpd-SignalAve_PC)/(SignalAve_VC-SignalAve_PC)×100

MET F1200I = target: T2, MET F1200I (Homo sapiens, UniProt P08581, F1200I); assay: Kinase inhibition experiment (HTRF KinEASE-TK kit), mutant MET F1200I; type: biochemical; conditions: 10 concentrations, 3-fold dilution
T2 construct: purchased Signalchem M52-12GG/Y767-2
T2 sequence (P08581 25-1390 F1200I): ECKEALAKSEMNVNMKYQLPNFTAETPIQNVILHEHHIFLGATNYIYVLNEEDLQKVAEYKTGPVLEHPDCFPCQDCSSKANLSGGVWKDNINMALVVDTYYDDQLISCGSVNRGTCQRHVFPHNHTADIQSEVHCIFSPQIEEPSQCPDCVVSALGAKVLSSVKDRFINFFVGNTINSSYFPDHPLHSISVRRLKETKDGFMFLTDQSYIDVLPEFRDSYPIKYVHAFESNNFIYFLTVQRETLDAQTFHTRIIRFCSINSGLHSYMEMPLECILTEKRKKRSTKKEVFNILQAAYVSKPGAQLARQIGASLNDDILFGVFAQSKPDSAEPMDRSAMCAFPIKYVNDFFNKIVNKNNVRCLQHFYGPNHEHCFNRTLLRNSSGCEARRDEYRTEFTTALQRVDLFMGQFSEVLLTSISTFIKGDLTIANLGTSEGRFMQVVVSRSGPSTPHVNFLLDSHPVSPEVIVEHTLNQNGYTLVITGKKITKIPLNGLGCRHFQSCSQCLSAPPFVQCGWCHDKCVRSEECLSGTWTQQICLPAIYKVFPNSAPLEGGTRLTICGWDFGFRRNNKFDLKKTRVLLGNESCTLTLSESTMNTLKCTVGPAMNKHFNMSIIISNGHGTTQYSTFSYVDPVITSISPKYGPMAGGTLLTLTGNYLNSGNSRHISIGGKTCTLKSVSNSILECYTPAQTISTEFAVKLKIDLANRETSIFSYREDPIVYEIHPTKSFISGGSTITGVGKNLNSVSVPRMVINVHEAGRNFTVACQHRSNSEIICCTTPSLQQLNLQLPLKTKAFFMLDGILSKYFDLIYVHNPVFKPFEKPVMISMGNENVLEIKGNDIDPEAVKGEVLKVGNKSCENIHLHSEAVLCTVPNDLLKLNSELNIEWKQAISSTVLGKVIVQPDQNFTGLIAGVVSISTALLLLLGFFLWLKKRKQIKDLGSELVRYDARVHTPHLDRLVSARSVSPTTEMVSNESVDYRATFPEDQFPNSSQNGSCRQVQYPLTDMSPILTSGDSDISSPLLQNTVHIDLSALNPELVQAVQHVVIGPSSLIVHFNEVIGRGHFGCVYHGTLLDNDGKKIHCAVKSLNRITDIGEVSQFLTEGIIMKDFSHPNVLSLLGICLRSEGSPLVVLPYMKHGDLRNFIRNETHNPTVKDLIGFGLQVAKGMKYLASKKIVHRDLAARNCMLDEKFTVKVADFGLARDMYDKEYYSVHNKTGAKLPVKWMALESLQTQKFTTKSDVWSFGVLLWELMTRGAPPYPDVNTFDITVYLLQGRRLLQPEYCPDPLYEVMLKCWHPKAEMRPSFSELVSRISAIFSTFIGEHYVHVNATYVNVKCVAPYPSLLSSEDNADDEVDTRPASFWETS
Procedure: as §1, §2, §3, §4, §5, §6, §7, §8, §9, §10

MET D1228N = target: T3, MET D1228N (Homo sapiens, UniProt P08581, D1228N); assay: Kinase inhibition experiment (HTRF KinEASE-TK kit), mutant MET D1228N; type: biochemical; conditions: 10 concentrations, 3-fold dilution
T3 construct: purchased Signalchem M52-12IG
T3 sequence (P08581 25-1390 D1228N): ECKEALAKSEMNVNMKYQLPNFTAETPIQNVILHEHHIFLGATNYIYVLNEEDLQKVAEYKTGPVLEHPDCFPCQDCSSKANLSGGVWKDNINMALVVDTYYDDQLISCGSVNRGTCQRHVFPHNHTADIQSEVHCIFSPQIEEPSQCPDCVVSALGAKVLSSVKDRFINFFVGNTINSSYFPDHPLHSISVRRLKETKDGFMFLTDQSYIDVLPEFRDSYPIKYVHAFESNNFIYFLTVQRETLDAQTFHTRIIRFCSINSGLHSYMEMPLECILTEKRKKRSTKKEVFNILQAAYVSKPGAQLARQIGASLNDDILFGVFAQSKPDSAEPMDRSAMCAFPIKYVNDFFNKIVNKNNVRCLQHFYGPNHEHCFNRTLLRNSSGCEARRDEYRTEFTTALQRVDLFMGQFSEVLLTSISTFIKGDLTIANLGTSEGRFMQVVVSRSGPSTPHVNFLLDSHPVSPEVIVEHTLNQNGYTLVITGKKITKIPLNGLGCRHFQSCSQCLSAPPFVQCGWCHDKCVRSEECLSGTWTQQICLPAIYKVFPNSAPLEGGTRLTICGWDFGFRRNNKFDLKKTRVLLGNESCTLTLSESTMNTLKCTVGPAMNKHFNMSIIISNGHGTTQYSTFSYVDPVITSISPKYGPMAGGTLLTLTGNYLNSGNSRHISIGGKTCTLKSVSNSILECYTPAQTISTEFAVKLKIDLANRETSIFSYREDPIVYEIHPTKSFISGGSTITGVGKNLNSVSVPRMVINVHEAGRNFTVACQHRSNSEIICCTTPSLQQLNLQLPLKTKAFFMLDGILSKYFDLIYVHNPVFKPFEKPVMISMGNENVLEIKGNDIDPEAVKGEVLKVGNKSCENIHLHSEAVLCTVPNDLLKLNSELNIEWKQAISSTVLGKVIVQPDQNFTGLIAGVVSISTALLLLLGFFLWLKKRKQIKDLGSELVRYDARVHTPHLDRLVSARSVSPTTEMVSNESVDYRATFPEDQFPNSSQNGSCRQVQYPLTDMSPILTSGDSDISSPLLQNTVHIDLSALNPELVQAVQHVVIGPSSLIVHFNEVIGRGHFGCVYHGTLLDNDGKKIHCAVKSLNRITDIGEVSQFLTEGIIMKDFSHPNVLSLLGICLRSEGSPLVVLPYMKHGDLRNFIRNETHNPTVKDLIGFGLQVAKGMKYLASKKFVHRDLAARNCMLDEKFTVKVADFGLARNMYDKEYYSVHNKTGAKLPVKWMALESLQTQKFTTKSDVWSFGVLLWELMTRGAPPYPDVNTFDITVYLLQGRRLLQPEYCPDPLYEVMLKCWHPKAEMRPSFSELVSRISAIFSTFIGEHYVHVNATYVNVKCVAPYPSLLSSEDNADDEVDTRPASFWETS
Procedure: as §1, §2, §3, §4, §5, §6, §7, §8, §9, §10

Hs746T cell line = assay: Cell proliferation inhibition experiment (CellTiter-Glo), Hs746T; type: cell-based; conditions: Homo sapiens, Hs 746T, CTG, 72 h
Procedure: (§11) CellTiter-Glo™ live cell detection kit adopts luciferase as the detection substance, and the luciferase needs the participation of ATP in the luminescence process. CellTiter-Glo™ reagent was added into the cell culture medium and the luminescence value was measured. The light signal is in direct proportion to the amount of ATP in the system, ATP is in direct correlation with number of living cells. Therefore, the proliferation of cells can be detected by detecting the content of ATP with CellTiter-Glo kit.
(§12) In the experiment, the proliferation inhibition effect of the prepared compounds on tumor cell lines Hs746T, EBC-1 and H1993 was measured by a celltiter-glo (CTG) method, and 50% inhibition concentration IC50 was calculated.
(§13) The compounds were determined on the selected cells, the solvent control was set and a total of 10 concentrations were detected, 2 replicates per concentration.
(§14) a) Cells in the logarithmic growth phase were harvested and counted by a […]. The cell viability was detected by a trypan blue exclusion method to ensure that the cell viability was over 90%.
(§15) b) The cell concentration was adjusted; 30 μL of cell suspension was added to a 384-well plate respectively.
(§16) c) Cells in a 384-well plate were incubated overnight at 37° C., 5% CO2 and 95% humidity.
(§17) a) 10 times of drug solution was prepared with the highest concentration of 10 mM, 10 concentrations and 3 times dilution, 10 μL of drug solution was added into each well of a 384-well plate inoculated with cells, and three multiple wells were arranged for each drug concentration. DMSO was the blank control.
(§18) b) The cells in the 384-well plate were incubated for a further 72 h at 37° C., 5% CO2 and 95% humidity before CTG analysis.
(§19) a) The CTG reagent was melted and the cell plate was equilibrated to room temperature for 30 min.
(§20) b) An equal volume of CTG solution was added to each well.
(§21) c) Cells were lysed by shaking on an orbital shaker for 5 minutes.
(§22) d) The cell plate was left at room temperature for 20 minutes to stabilize the luminescence signal.
(§23) e) The cold light value was read.
(§24) The data was analyzed by GraphPad Prism 8 software, and the dose-response curve was fitted with nonlinear S-curve regression, and the IC50 value was calculated therefrom.
(§25) Cell viability(%)=(Lumdrugs to be tested-Lumblank control)/(Lumcell control-Lumblank control)×100%.

H1993 cell line = assay: Cell proliferation inhibition experiment (CellTiter-Glo), H1993; type: cell-based; conditions: Homo sapiens, NCI-H1993, CTG, 72 h
Procedure: as §11, §12, §13, §14, §15, §16, §17, §18, §19, §20, §21, §22, §23, §24, §25

EBC-1 cell line = assay: Cell proliferation inhibition experiment (CellTiter-Glo), EBC-1; type: cell-based; conditions: Homo sapiens, CTG, 72 h
Procedure: as §11, §12, §13, §14, §15, §16, §17, §18, §19, §20, §21, §22, §23, §24, §25

T1 sequence (P08581 25-1390): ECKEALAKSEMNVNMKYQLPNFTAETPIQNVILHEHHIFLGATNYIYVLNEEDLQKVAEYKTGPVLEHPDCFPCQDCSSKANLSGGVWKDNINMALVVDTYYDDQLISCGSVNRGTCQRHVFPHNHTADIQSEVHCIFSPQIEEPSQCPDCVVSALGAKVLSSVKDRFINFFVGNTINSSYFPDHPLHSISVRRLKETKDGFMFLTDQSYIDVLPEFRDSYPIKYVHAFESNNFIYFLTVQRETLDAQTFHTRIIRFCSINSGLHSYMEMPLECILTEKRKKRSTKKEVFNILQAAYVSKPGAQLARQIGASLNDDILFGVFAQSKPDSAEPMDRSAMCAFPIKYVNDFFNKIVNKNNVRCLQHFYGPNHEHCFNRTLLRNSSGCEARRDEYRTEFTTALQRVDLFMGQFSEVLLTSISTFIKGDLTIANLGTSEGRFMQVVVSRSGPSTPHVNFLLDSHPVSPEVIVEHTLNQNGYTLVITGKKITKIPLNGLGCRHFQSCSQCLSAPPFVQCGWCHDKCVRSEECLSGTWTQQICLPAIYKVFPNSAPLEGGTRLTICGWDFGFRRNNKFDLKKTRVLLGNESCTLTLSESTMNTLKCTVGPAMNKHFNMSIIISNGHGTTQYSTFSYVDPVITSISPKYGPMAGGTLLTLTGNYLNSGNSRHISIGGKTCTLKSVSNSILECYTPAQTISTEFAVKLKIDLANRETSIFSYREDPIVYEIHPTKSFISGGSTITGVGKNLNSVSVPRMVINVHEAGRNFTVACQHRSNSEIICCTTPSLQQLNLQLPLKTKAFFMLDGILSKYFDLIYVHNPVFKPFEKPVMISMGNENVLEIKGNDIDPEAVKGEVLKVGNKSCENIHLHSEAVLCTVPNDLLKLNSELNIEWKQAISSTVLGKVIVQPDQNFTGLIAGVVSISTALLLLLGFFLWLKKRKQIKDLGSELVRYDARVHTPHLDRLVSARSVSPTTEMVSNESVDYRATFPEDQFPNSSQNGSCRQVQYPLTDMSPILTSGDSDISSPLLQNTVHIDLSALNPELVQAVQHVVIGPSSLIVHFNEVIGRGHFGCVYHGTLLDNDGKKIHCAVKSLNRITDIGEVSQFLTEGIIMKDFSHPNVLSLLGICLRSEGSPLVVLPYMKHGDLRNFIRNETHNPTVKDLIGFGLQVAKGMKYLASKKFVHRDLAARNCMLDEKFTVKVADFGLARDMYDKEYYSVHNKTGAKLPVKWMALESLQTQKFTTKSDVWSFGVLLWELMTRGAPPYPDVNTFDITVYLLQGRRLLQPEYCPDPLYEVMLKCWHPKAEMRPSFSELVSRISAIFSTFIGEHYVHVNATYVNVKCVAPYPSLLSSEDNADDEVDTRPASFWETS

SMILES	IC50 [1] [nM]	IC50 (MET F1200I) [nM]	IC50 (MET D1228N) [nM]	IC50 (H1993 cell line) [nM]	IC50 (Hs746T cell line) [nM]	IC50 (EBC-1 cell line) [nM]
C[C@H](CO)Nc1n[nH]c2nccc(Oc3ccc(NC(=O)c4cccc(-c5ccc(F)cc5)[n+]4[O-])cc3F)c12 [Final Product 2, (R)-2-((3-fluoro-4-((3-((1-hydroxypropan-2-yl)amino)-1H-pyrazolo[3,4-b]pyridin-4-yl)oxy)phenyl)carbamoyl)-6-(4-fluorophenyl)pyridine 1-oxide]	0.9	3	18	31.8	8.5	12.6
CCC(CO)Nc1n[nH]c2nccc(Oc3ccc(NC(=O)c4cccc(-c5ccc(F)cc5)[n+]4[O-])cc3F)c12 (stereo not shown) [Final product 4]	2.2	10	15.7	54.9	12.6	14.4
CC(C)(O)CNc1n[nH]c2nccc(Oc3ccc(NC(=O)c4cccc(-c5ccc(F)cc5)[n+]4[O-])cc3F)c12 [Final product 10]	4.7	30.9	13.6		29.1	52.5
O=C(Nc1ccc(Oc2ccnc3[nH]nc(NCC(O)CO)c23)c(F)c1)c1cccc(-c2ccc(F)cc2)[n+]1[O-] (stereo not shown) [Final product 15]	1.3	6.5	20.1	39.4	21.6	
O=C(Nc1ccc(Oc2ccnc3[nH]nc(NC4COCC4O)c23)c(F)c1)c1cccc(-c2ccc(F)cc2)[n+]1[O-] (stereo not shown) [Final product 24]	2.5	9.5	29.5		14.5	20.1
O=C(Nc1ccc(Oc2ccnc3[nH]nc(N4CCC(CO)CC4)c23)c(F)c1)c1cccc(-c2ccc(F)cc2)[n+]1[O-] [Final product 28]	3	9.6	34.5		14	17.1
O=C(Nc1ccc(Oc2ccnc3[nH]nc(N4CC5(CC(O)C5)C4)c23)c(F)c1)c1cccc(-c2ccc(F)cc2)[n+]1[O-] [Final product 36]	4	6.7	25.1		9.9	15.1
C[C@H](CO)Nc1n[nH]c2nccc(Oc3ccc(NC(=O)c4cccc(-c5ccc(F)cc5F)[n+]4[O-])cc3F)c12 [Final product 44]	2.5	6.7	14.8	85.3	15.2	21.3
C[C@H](CO)Nc1n[nH]c2nccc(Oc3ccc(NC(=O)c4ccc(F)c(-c5ccc(F)cc5)[n+]4[O-])cc3F)c12 [Final product 53]	2	8.7	4.8	29	14.6	15.7
C[C@H](CO)Nc1n[nH]c2nccc(Oc3ccc(NC(=O)c4ccc(Cl)c(-c5ccc(F)cc5)[n+]4[O-])cc3F)c12 [Final product 57]	1.6	2.8	28.5	59.5	11.4	19.6
CC[C@H](CO)Nc1n[nH]c2nccc(Oc3ccc(NC(=O)c4ccc(Cl)c(-c5ccc(F)cc5)[n+]4[O-])cc3F)c12 [Final product 58]	4.9	16.1	15.9	16.4	12.8	13.2

More lines, main results first:

IC50 [1] [nM]	IC50 (MET F1200I) [nM]	IC50 (MET D1228N) [nM]	IC50 (H1993 cell line) [nM]	SMILES	IC50 (Hs746T cell line) [nM]	IC50 (EBC-1 cell line) [nM]
4.7	13.1	26.6		O=C(Nc1ccc(Oc2ccnc3[nH]nc(N[C@@H]4CCC(O)C4)c23)c(F)c1)c1ccc(Cl)c(-c2ccc(F)cc2)[n+]1[O-] (stereo partly shown) [Final product 63]	4.6	13.4
4	16.3	12.3	19.1	Cc1ccc(C(=O)Nc2ccc(Oc3ccnc4[nH]nc(N[C@H](C)CO)c34)c(F)c2)[n+]([O-])c1-c1ccc(F)cc1 [Final product 67]	4.2	6.6
3	12.3	25.4	68.4	Cc1ccc(C(=O)Nc2ccc(Oc3ccnc4[nH]nc(NCC(O)CO)c34)c(F)c2)[n+]([O-])c1-c1ccc(F)cc1 (stereo not shown) [Final product 69]	19.6	29.3
6.9		35.5	12	Cc1ccc(C(=O)Nc2ccc(Oc3ccnc4[nH]nc(NCC5(O)CC5)c34)c(F)c2)[n+]([O-])c1-c1ccc(F)cc1 [Final product 70]	24.4	
1.5	2.3	9.8	26.8	CCc1ccc(C(=O)Nc2ccc(Oc3ccnc4[nH]nc(N[C@H](C)CO)c34)c(F)c2)[n+]([O-])c1-c1ccc(F)cc1 [Final product 80]	9.6	8.7
3.7	2.3	10.5	29.6	COc1ccc(C(=O)Nc2ccc(Oc3ccnc4[nH]nc(N[C@H](C)CO)c34)c(F)c2)[n+]([O-])c1-c1ccc(F)cc1 [Final product 85]	9.4	10.4
3.3	7	20.8	36.4	C[C@H](CO)Nc1n[nH]c2nccc(Oc3ccc(NC(=O)c4cccc(-c5ccc(F)cc5)[n+]4[O-])cc3Cl)c12 [Final product 97]	12.1	12.9
0.9	0.9	17.8	57.2	C[C@H](CO)Nc1n[nH]c2nccc(Oc3ccc(NC(=O)c4ccc(F)c(-c5ccc(F)cc5)[n+]4[O-])cc3Cl)c12 [Final product 117]	7	17.2
0.8	0.8	7.6	29.9	Cc1ccc(C(=O)Nc2ccc(Oc3ccnc4[nH]nc(N[C@H](C)CO)c34)c(Cl)c2)[n+]([O-])c1-c1ccc(F)cc1 [Final product 124]	21.9	14.9
3	2	14.8	78.4	C[C@H](CO)Nc1n[nH]c2nccc(Oc3ccc(NC(=O)c4ccc(Cl)c(-c5ccc(F)cc5)[n+]4[O-])c(F)c3)c12 [Final product 159]		
3.8	9.2	13.9		O=C(Nc1ccc(Oc2ncnc3ccn(CCCO)c23)c(F)c1)c1cccc(-c2ccc(F)cc2)[n+]1[O-] [Final product 168, 2-((3-fluoro-4-((5-(3-hydroxypropyl)-5H-pyrrolo[3,2-d]pyrimidin-4-yl)oxy)phenyl)carbamoyl)-6-(4-fluorophenyl)pyridine 1-oxide]	65.4	56.7
